test system: 5-lipoxygenase; experiment: inhibition of 5-lipoxygenase activity in polymorphonuclear rat leucocytes (LTB4 formation); assay type: cell-based; settings: 10^-5 mol/l; 22° C.
Procedure, shortened: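 Thioglycolate-elicited peritoneal PMNs from male Sprague-Dawley rats (0.5×10^6 cells) preincubated 15 min at 22 °C with 10 μM compound in HEPES-buffered HBSS, then stimulated with 5 μM calcimycin for 10 min. LTB4 quantified by reverse-phase HPLC at 270 nm; % inhibition versus solvent control.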

Going from `Cc1cc(-c2c(C)c3cccc4c3n2CC(CCCC(=O)N2CCN(c3ccccn3)CC2)O4)cc(C)c1O` (centres unmarked) [Example 23] to `Cc1cc(-c2c(C)c3cccc4c3n2CC(CCC(=O)N2CCN(c3ccccn3)CC2)O4)cc(C)c1O` (centres unmarked) [Example 26], the “In vitro inhibitory activity on LTB4 formation in rat PMNs stimulated by calcium ionophore A23187” value falls from 92% to 67%.

Compared with `Cc1ccnc(N2CCN(CCC3Cn4c(-c5ccc(O)c(O)c5)c(C)c5cccc(c54)O3)CC2)c1` (centres unmarked) [Example 13], `COc1cc(-c2c(C)c3cccc4c3n2CC(CCN2CCN(c3cc(C)ccn3)CC2)O4)ccc1O` (centres unmarked) [Example 12] is higher in “In vitro inhibitory activity on LTB4 formation in rat PMNs stimulated by calcium ionophore A23187” value: 98% for the first, 100% for the second.

`Cc1ccnc(N2CCN(C(=O)CCC3Cn4c(-c5ccc(O)cc5)c(C)c5c(O)ccc(c54)O3)CC2)c1` (centres unmarked) [Example 69] and `Cc1ccnc(N2CCN(CCC3Cn4c(-c5ccc(O)cc5)c(C)c5c(O)ccc(c54)O3)CC2)c1` (centres unmarked) [Example 4, 2,3-Dihydro-7-hydroxy-5-(4-hydroxyphenyl)-6-methyl-2-[2-(4-(4-methylpyridin-2-yl)piperazin-1-yl)ethyl]pyrrolo[1,2,3-de]-1,4-benzoxazine] are the same in “In vitro inhibitory activity on LTB4 formation in rat PMNs stimulated by calcium ionophore A23187” value: 100% for the first, 100% for the second.

First: Cc1cc(-c2c(C)c3c(F)ccc4c3n2CC(CCN2CCN(c3ccccn3)CC2)O4)cc(C)c1O (centres unmarked) [Example 27]
Second: Cc1ccnc(N2CCN(CCC3Cn4c(-c5cc(C)c(O)c(C)c5)c(C)c5c(F)ccc(c54)O3)CC2)c1 (centres unmarked) [Example 28]
The “In vitro inhibitory activity on LTB4 formation in rat PMNs stimulated by calcium ionophore A23187” value of the first is higher: 90% for the first, 48% for the second.

First: Cc1cc(-c2c(C)c3c(OCc4ccccc4)ccc4c3n2CC(CCC(=O)N2CCN(c3ccccn3)CC2)O4)cc(C)c1O (centres unmarked) [Example 75]
Second: Cc1cc(-c2c(C)c3c(O)ccc4c3n2CC(CCC(=O)N2CCN(c3ccccn3)CC2)O4)cc(C)c1O (centres unmarked) [Example 71]
The “In vitro inhibitory activity on LTB4 formation in rat PMNs stimulated by calcium ionophore A23187” value of the first is lower: 51% for the first, 100% for the second.

`COc1cc(-c2c(C)c3c(O)ccc4c3n2CC(CCC(=O)N2CCN(c3ccccn3)CC2)O4)cc(C)c1O` (centres unmarked) [Example 72] and `Cc1ccnc(N2CCN(C(=O)CCC3Cn4c(-c5cc(C)c(O)c(C)c5)c(C)c5c(O)ccc(c54)O3)CC2)c1` (centres unmarked) [Example 67] are the same in “In vitro inhibitory activity on LTB4 formation in rat PMNs stimulated by calcium ionophore A23187” value: 100% for the first, 100% for the second.

Going from `Cc1ccnc(N2CCN(C(=O)CCC3Cn4c(-c5ccc(O)cc5)c(C)c5cccc(c54)O3)CC2)c1` (centres unmarked) [Example 15] to `Cc1ccc(N2CCN(C(=O)CCC3Cn4c(-c5ccc(O)cc5)c(C)c5cccc(c54)O3)CC2)nc1` (centres unmarked) [Example 34], the “In vitro inhibitory activity on LTB4 formation in rat PMNs stimulated by calcium ionophore A23187” value rises from 94% to 95%.

`Cc1ccnc(N2CCN(CCCC3Cn4c(-c5cc(C)c(O)c(C)c5)c(C)c5c(O)ccc(c54)O3)CC2)c1` (centres unmarked) [Example 73] and `Cc1cccnc1N1CCN(CCCC2Cn3c(-c4cc(C)c(O)c(C)c4)c(C)c4c(O)ccc(c43)O2)CC1` (centres unmarked) [Example 74] are the same in “In vitro inhibitory activity on LTB4 formation in rat PMNs stimulated by calcium ionophore A23187” value: 100% for the first, 100% for the second.

Compared with `COc1cc(-c2c(C)c3cccc4c3n2CC(CCC(=O)N2CCN(c3ccc(C)cn3)CC2)O4)ccc1O` (centres unmarked) [Example 39], `Cc1ccnc(N2CCN(C(=O)CCCC3Cn4c(-c5cc(C)c(O)c(C)c5)c(C)c5cccc(c54)O3)CC2)c1` (centres unmarked) [Example 9, 2,3-Dihydro-5-(3,5-dimethyl-4-hydroxyphenyl)-6-methyl-2-[4-(4-(4-methylpyridin-2-yl)piperazin-1-yl)-4-oxobutyl]-pyrrolo[1,2,3-de]-1,4-benzoxazine] is lower in “In vitro inhibitory activity on LTB4 formation in rat PMNs stimulated by calcium ionophore A23187” value: 98% for the first, 86% for the second.

Going from `COc1cc2c3c(c1)c(C)c(-c1cc(C)c(O)c(C)c1)n3CC(CCN1CCN(c3cc(C)ccn3)CC1)O2` (centres unmarked) [Example 43] to `Cc1ccnc(N2CCN(CCC3Cn4c(-c5cc(C)c(O)c(C)c5)c(C)c5cc(O)cc(c54)O3)CC2)c1` (centres unmarked) [Example 44], the “In vitro inhibitory activity on LTB4 formation in rat PMNs stimulated by calcium ionophore A23187” value rises from 66% to 100%.

First: Cc1ccnc(N2CCN(CCC3Cn4c(-c5cc(C)c(O)c(C)c5)c(C)c5cccc(c54)O3)CC2)c1 (centres unmarked) [Example 20]
Second: Cc1cc(-c2c(C)c3cccc4c3n2CC(CCCCN2CCN(c3ccccn3)CC2)O4)cc(C)c1O (centres unmarked) [Example 65]
The “In vitro inhibitory activity on LTB4 formation in rat PMNs stimulated by calcium ionophore A23187” value of the first is higher: 75% for the first, 64% for the second.

In the case of `COc1ccc2c3c1c(C)c(-c1ccc(O)cc1)n3CC(CCN1CCN(c3cc(C)ccn3)CC1)O2` (centres unmarked) [Example 3, 2,3-Dihydro-5-(4-hydroxyphenyl)-7-methoxy-6-methyl-2-[2-(4-(4-methylpyridin-2-yl)piperazin-1-yl)ethyl]pyrrolo[1,2,3-de]-1,4-benzoxazine], the “In vitro inhibitory activity on LTB4 formation in rat PMNs stimulated by calcium ionophore A23187” value is reported as 96%.

Source: patent publication US5474988A, “5-phenylpyrrolo-1,4-benzoxazine and 5-phenylpyrrolo-1,4-benzothiazine compounds, process and intermediates for their production and pharmaceutical compositions containing them” (Kali-Chemie Pharma GmbH, priority 1993, dated 1995)
